In PubChem BioAssay (NCI):
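Step 1: Grow cells in 96-well plates. Step 2: Expose to compound for 48 hours at 5 concentrations. Step 3: Interpolate endpoints linearly; if unreached, use highest concentration. TGI is the concentration that stops growth completely.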

Tests used:
Assay in all cases: inhibition of tumour cell growth, NCI panel, 48 h
786-0 renal = system: 786-0 renal
A498 renal = system: A498 renal
A549 NSCLC = system: A549 NSCLC
ACHN renal = system: ACHN renal
BT-549 breast = system: BT-549 breast
CAKI-1 renal = system: CAKI-1 renal
CCRF-CEM leukemia = system: CCRF-CEM leukemia
COLO 205 colon = system: COLO 205 colon
DU-145 prostate = system: DU-145 prostate
EKVX NSCLC = system: EKVX NSCLC
HCC-2998 colon = system: HCC-2998 colon
HCT-116 colon = system: HCT-116 colon
HCT-15 colon = system: HCT-15 colon
HL-60(TB) leukemia = system: HL-60(TB) leukemia
HOP-62 NSCLC = system: HOP-62 NSCLC
HOP-92 NSCLC = system: HOP-92 NSCLC
HS 578T breast = system: HS 578T breast
HT29 colon = system: HT29 colon
IGROV1 ovarian = system: IGROV1 ovarian
K-562 leukemia = system: K-562 leukemia
KM12 colon = system: KM12 colon
LOX IMVI melanoma = system: LOX IMVI melanoma
M14 melanoma = system: M14 melanoma
MALME-3M melanoma = system: MALME-3M melanoma
MCF7 breast = system: MCF7 breast
MDA-MB-231 breast = system: MDA-MB-231 breast
MDA-MB-435 = system: MDA-MB-435
MDA-N = system: MDA-N
MOLT-4 leukemia = system: MOLT-4 leukemia
NCI-H226 lung = system: NCI-H226 lung
NCI-H23 lung = system: NCI-H23 lung
NCI-H460 lung = system: NCI-H460 lung
NCI-H522 lung = system: NCI-H522 lung
NCI/ADR-RES ovarian = system: NCI/ADR-RES ovarian
OVCAR-3 ovarian = system: OVCAR-3 ovarian
OVCAR-4 ovarian = system: OVCAR-4 ovarian
OVCAR-5 ovarian = system: OVCAR-5 ovarian
OVCAR-8 ovarian = system: OVCAR-8 ovarian
PC-3 prostate = system: PC-3 prostate
RPMI-8226 leukemia = system: RPMI-8226 leukemia
RXF 393 renal = system: RXF 393 renal
SF-268 CNS = system: SF-268 CNS
SF-295 CNS = system: SF-295 CNS
SF-539 CNS = system: SF-539 CNS
SK-MEL-2 melanoma = system: SK-MEL-2 melanoma
SK-MEL-28 melanoma = system: SK-MEL-28 melanoma
SK-MEL-5 melanoma = system: SK-MEL-5 melanoma
SK-OV-3 ovarian = system: SK-OV-3 ovarian
SN12C renal = system: SN12C renal
SNB-19 CNS = system: SNB-19 CNS
SNB-75 CNS = system: SNB-75 CNS
SR leukemia = system: SR leukemia
SW-620 colon = system: SW-620 colon
T-47D breast = system: T-47D breast
TK-10 renal = system: TK-10 renal
U251 CNS = system: U251 CNS
UACC-257 melanoma = system: UACC-257 melanoma
UACC-62 melanoma = system: UACC-62 melanoma
UO-31 renal = system: UO-31 renal

Molecule `COc1ccc2c(CCN)c(C(=O)O)[nH]c2c1` has a TGI (786-0 renal) of over 100 µM, a TGI (A498 renal) of over 100 µM and a TGI (A549 NSCLC) of over 100 µM. For the same molecule, the TGI (ACHN renal) was over 100 µM, the TGI (BT-549 breast) was over 100 µM and the TGI (CAKI-1 renal) was over 100 µM. For the same molecule, the TGI (CCRF-CEM leukemia) was over 100 µM, the TGI (COLO 205 colon) was over 100 µM and the TGI (DU-145 prostate) was over 100 µM. The TGI (EKVX NSCLC) was over 100 µM, the TGI (HCC-2998 colon) was over 100 µM and the TGI (HCT-116 colon) was over 100 µM. The TGI (HCT-15 colon) was over 100 µM, the TGI (HL-60(TB) leukemia) was over 100 µM and the TGI (HOP-62 NSCLC) was over 100 µM. For the same molecule, the TGI (HOP-92 NSCLC) was over 100 µM, the TGI (HS 578T breast) was over 100 µM and the TGI (HT29 colon) was over 100 µM. It also gave a TGI (IGROV1 ovarian) of over 100 µM, a TGI (K-562 leukemia) of over 100 µM and a TGI (KM12 colon) of over 100 µM. It also gave a TGI (LOX IMVI melanoma) of over 100 µM, a TGI (M14 melanoma) of over 100 µM and a TGI (MALME-3M melanoma) of over 100 µM. It also gave a TGI (MCF7 breast) of over 100 µM, a TGI (MDA-MB-231 breast) of over 100 µM and a TGI (MDA-MB-435) of over 100 µM. The TGI (MDA-N) was over 100 µM, the TGI (MOLT-4 leukemia) was over 100 µM and the TGI (NCI-H226 lung) was over 100 µM. For the same molecule, the TGI (NCI-H23 lung) was over 100 µM, the TGI (NCI-H460 lung) was over 100 µM and the TGI (NCI-H522 lung) was over 100 µM. The TGI (NCI/ADR-RES ovarian) was over 100 µM, the TGI (OVCAR-3 ovarian) was over 100 µM and the TGI (OVCAR-4 ovarian) was over 100 µM. It also gave a TGI (OVCAR-5 ovarian) of over 100 µM, a TGI (OVCAR-8 ovarian) of over 100 µM and a TGI (PC-3 prostate) of over 100 µM. For the same molecule, the TGI (RPMI-8226 leukemia) was over 100 µM, the TGI (RXF 393 renal) was over 100 µM and the TGI (SF-268 CNS) was over 100 µM. For the same molecule, the TGI (SF-295 CNS) was over 100 µM, the TGI (SF-539 CNS) was over 100 µM and the TGI (SK-MEL-2 melanoma) was over 100 µM. For the same molecule, the TGI (SK-MEL-28 melanoma) was over 100 µM, the TGI (SK-MEL-5 melanoma) was over 100 µM and the TGI (SK-OV-3 ovarian) was over 100 µM. It also gave a TGI (SN12C renal) of over 100 µM, a TGI (SNB-19 CNS) of over 100 µM and a TGI (SNB-75 CNS) of over 100 µM. It also gave a TGI (SR leukemia) of over 43.7 µM, a TGI (SW-620 colon) of over 100 µM and a TGI (T-47D breast) of over 100 µM. The TGI (TK-10 renal) was over 100 µM, the TGI (U251 CNS) was over 100 µM and the TGI (UACC-257 melanoma) was over 100 µM. The TGI (UACC-62 melanoma) was over 100 µM and the TGI (UO-31 renal) was over 100 µM.

`Cc1cc(=O)oc2cc(OC(=O)N(C)C)c(Cl)cc12` gave a TGI (786-0 renal) of over 100 µM, a TGI (A498 renal) of over 100 µM and a TGI (A549 NSCLC) of over 100 µM. For the same molecule, the TGI (ACHN renal) was over 100 µM, the TGI (BT-549 breast) was over 100 µM and the TGI (CAKI-1 renal) was over 100 µM. The TGI (CCRF-CEM leukemia) was over 100 µM, the TGI (COLO 205 colon) was over 100 µM and the TGI (DU-145 prostate) was over 100 µM. For the same molecule, the TGI (EKVX NSCLC) was over 100 µM, the TGI (HCC-2998 colon) was over 100 µM and the TGI (HCT-116 colon) was over 100 µM. It also gave a TGI (HCT-15 colon) of over 100 µM, a TGI (HL-60(TB) leukemia) of over 100 µM and a TGI (HOP-62 NSCLC) of 79 µM. It also gave a TGI (HOP-92 NSCLC) of over 100 µM, a TGI (HS 578T breast) of over 100 µM and a TGI (HT29 colon) of over 100 µM. For the same molecule, the TGI (IGROV1 ovarian) was over 100 µM, the TGI (K-562 leukemia) was over 100 µM and the TGI (KM12 colon) was over 100 µM. It also gave a TGI (LOX IMVI melanoma) of over 100 µM, a TGI (M14 melanoma) of over 100 µM and a TGI (MALME-3M melanoma) of over 100 µM. For the same molecule, the TGI (MCF7 breast) was over 100 µM, the TGI (MDA-MB-231 breast) was over 100 µM and the TGI (MDA-MB-435) was over 100 µM. It also gave a TGI (MDA-N) of over 100 µM, a TGI (MOLT-4 leukemia) of over 100 µM and a TGI (NCI-H226 lung) of over 100 µM. It also gave a TGI (NCI-H23 lung) of over 100 µM, a TGI (NCI-H460 lung) of over 100 µM and a TGI (NCI-H522 lung) of over 100 µM. The TGI (NCI/ADR-RES ovarian) was over 100 µM, the TGI (OVCAR-3 ovarian) was over 100 µM and the TGI (OVCAR-4 ovarian) was over 100 µM. For the same molecule, the TGI (OVCAR-5 ovarian) was over 100 µM, the TGI (OVCAR-8 ovarian) was over 100 µM and the TGI (PC-3 prostate) was over 100 µM. For the same molecule, the TGI (RPMI-8226 leukemia) was over 100 µM, the TGI (RXF 393 renal) was 41.5 µM and the TGI (SF-268 CNS) was over 100 µM. The TGI (SF-539 CNS) was over 100 µM, the TGI (SK-MEL-2 melanoma) was over 100 µM and the TGI (SK-MEL-28 melanoma) was over 100 µM. It also gave a TGI (SK-MEL-5 melanoma) of over 100 µM, a TGI (SN12C renal) of over 100 µM and a TGI (SNB-19 CNS) of over 100 µM. It also gave a TGI (SR leukemia) of over 100 µM, a TGI (SW-620 colon) of over 100 µM and a TGI (T-47D breast) of over 100 µM. For the same molecule, the TGI (TK-10 renal) was over 100 µM, the TGI (U251 CNS) was over 100 µM and the TGI (UACC-257 melanoma) was over 100 µM. It also gave a TGI (UACC-62 melanoma) of 83.2 µM and a TGI (UO-31 renal) of over 100 µM.

`COC(=O)C(Cc1c(C2Nc3ccccc3C2CC(NC(=O)CNC(C)=O)C(=O)OC)[nH]c2ccccc12)NC(=O)CNC(C)=O` (centres undefined) showed a TGI (786-0 renal) of over 100 µM, a TGI (A498 renal) of over 100 µM and a TGI (A549 NSCLC) of over 100 µM. It also gave a TGI (ACHN renal) of over 100 µM, a TGI (BT-549 breast) of over 100 µM and a TGI (CAKI-1 renal) of over 100 µM. It also gave a TGI (CCRF-CEM leukemia) of over 100 µM, a TGI (COLO 205 colon) of over 100 µM and a TGI (DU-145 prostate) of over 100 µM. It also gave a TGI (EKVX NSCLC) of over 100 µM, a TGI (HCC-2998 colon) of over 100 µM and a TGI (HCT-116 colon) of over 100 µM. It also gave a TGI (HCT-15 colon) of over 100 µM, a TGI (HL-60(TB) leukemia) of over 100 µM and a TGI (HOP-62 NSCLC) of over 69.8 µM. For the same molecule, the TGI (HOP-92 NSCLC) was over 100 µM, the TGI (HS 578T breast) was over 100 µM and the TGI (HT29 colon) was over 100 µM. For the same molecule, the TGI (IGROV1 ovarian) was over 100 µM, the TGI (K-562 leukemia) was over 100 µM and the TGI (KM12 colon) was over 100 µM. It also gave a TGI (LOX IMVI melanoma) of over 100 µM, a TGI (M14 melanoma) of over 100 µM and a TGI (MALME-3M melanoma) of over 100 µM. The TGI (MCF7 breast) was over 100 µM, the TGI (MDA-MB-231 breast) was over 100 µM and the TGI (MDA-MB-435) was over 100 µM. The TGI (MDA-N) was over 100 µM, the TGI (MOLT-4 leukemia) was over 100 µM and the TGI (NCI-H226 lung) was over 100 µM. For the same molecule, the TGI (NCI-H23 lung) was over 100 µM, the TGI (NCI-H460 lung) was over 100 µM and the TGI (NCI-H522 lung) was over 100 µM. For the same molecule, the TGI (NCI/ADR-RES ovarian) was over 100 µM, the TGI (OVCAR-3 ovarian) was over 100 µM and the TGI (OVCAR-4 ovarian) was over 100 µM. It also gave a TGI (OVCAR-5 ovarian) of over 100 µM, a TGI (OVCAR-8 ovarian) of over 100 µM and a TGI (PC-3 prostate) of over 100 µM. The TGI (RPMI-8226 leukemia) was over 100 µM, the TGI (RXF 393 renal) was over 100 µM and the TGI (SF-268 CNS) was over 100 µM. The TGI (SF-295 CNS) was over 100 µM, the TGI (SF-539 CNS) was over 100 µM and the TGI (SK-MEL-2 melanoma) was over 100 µM. The TGI (SK-MEL-28 melanoma) was over 100 µM, the TGI (SK-MEL-5 melanoma) was over 100 µM and the TGI (SK-OV-3 ovarian) was over 100 µM. It also gave a TGI (SN12C renal) of over 100 µM, a TGI (SNB-19 CNS) of over 100 µM and a TGI (SNB-75 CNS) of over 100 µM. The TGI (SR leukemia) was over 100 µM, the TGI (SW-620 colon) was over 100 µM and the TGI (T-47D breast) was over 100 µM. For the same molecule, the TGI (TK-10 renal) was over 100 µM, the TGI (U251 CNS) was over 100 µM and the TGI (UACC-257 melanoma) was over 100 µM. For the same molecule, the TGI (UACC-62 melanoma) was over 100 µM and the TGI (UO-31 renal) was over 100 µM.
